Laboratory results reported in patent US20010056582A1, “PAIRED MUTATIONS” (priority 1997, published 2001).
Structures can show the parent of a compound that is named as a salt. Where two headings read alike, the source gives them in different places.

Experiments:
[1] = system: post-cell stages of spermatogenesis (male germ cells); settings: cited from earlier work; for Lethal/tested mutations: number of lethal mutations among those tested, for chlorambucil includes mutations with evidence for deletion
male mice = test: Sterility of male mice after ENU treatment; type: in vivo
Protocol: Mutations in the DNA of the premeiotic spermatogonia of male mice can be induced with the DNA alkylating agent ethylnitrosourea (ENU). Typically, 3 separate doses of 100 mg/kg body weight ENU are injected interperitoneally, with each injection separated by a one week interval. The animals undergo a period of sterility (usually 8-14 weeks), after which they can be mated to nonmutagenized females to produce offspring (the F1 generation) which carry heterozygous mutations in their genome (FIG. 1).
Each animal carries the same set of heterozygous mutations throughout both somatic and germ tissue. To generate large numbers of offspring for a paired sample set, 300 males are treated with ENU. Approximately 100 of these mice will be permanently sterile; the remaining 200 are permanently mated with 2 females each. […] In this way a set of paired samples comprised of over 30,000 animals can be produced within a year, including the time required to establish the ENU treated breeding males. The process can be scaled up by ENU treatment and breeding of additional male mice.

mice = settings: cited from earlier work; for mutation frequency compared with ENU: other chemical mutagens versus ENU (approximately 1 per 1000 mice)
zebrafish = settings: ENU mutagenesis; cited from earlier work
[2] = experimental minus historical control 43/801,406, for period of maximum response, at the listed exposure
[3] = rate relative to exposure in mol per kg body weight

SMILES	Induced mutation rate per locus [1, 2]	Lethal/tested mutations [1]	Induced mutation rate per locus per mol [1, 3] [per mol]	mutation frequency compared with ENU (mice)	also measured
C=CC(N)=O [AA, acrylamide monomer]	–	–	–	–	Induced mutation rate per locus ([1]; mouse, in vivo): 18.2 × 10^−5; Induced mutation rate per locus per mol ([1]; mouse, in vivo): 0.1 per mol
O=C(O)CCCc1ccc(N(CCCl)CCCl)cc1 [Chl, chlorambucil]	127.3 × 10^−5	1/4	38.7	–	–
O=P1(N(CCCl)CCCl)NCCCO1 (stereo not drawn) [Cp, cyclophosphamide]	24.3 × 10^−5	3/5	0.5	–	–
CCN(N=O)C(N)=O [ENU, N-ethyl-N-nitrosourea]	10.6 × 10^−5	0/5	0.2	–	period of sterility (male mice; male mice, 3 doses of 100 mg/kg ENU interperitoneally at one week intervals): 8-14 weeks; mice permanently sterile (male mice; of 300 males treated with ENU): Approximately 100 mice; frequency of mutations, determined for numerous genes (mice; for any given gene screened, phenotype-based): 0.5-1.5 mutant mice per 1000 mice; frequency of a mutation in any given gene (mice; offspring of ENU mutagenized male mice, based on phenotypic assays): approximately 1 per 1000 mice; locus-specific mutation frequency (zebrafish): 1/1000
CCOS(=O)(=O)OCC [Et2SO4, diethyl sulfate]	–	4/4	–	–	Induced mutation rate per locus ([1]; mouse, in vivo): 11.2 × 10^−5; Induced mutation rate per locus per mol ([1]; mouse, in vivo): 0.1 per mol
CCOS(C)(=O)=O [EtMs, ethyl methanesulforate]	20.9 × 10^−5	0/1	0.1	–	–
CN(N=O)C(N)=O [MNU, N-methyl N-nitrosourea]	90.2 × 10^−5	0/17	1.2	same type of mutation frequency	–
COS(C)(=O)=O [MeMs, methyl methanesulforate]	24.0 × 10^−5	10/14	0.7	same type of mutation frequency	–
CNNCc1ccc(C(=O)NC(C)C)cc1.Cl [Pre, phocarbazine hydrochloride]	21.6 × 10^−5	–	0.1	same type of mutation frequency	–
